ChEMBL document CHEMBL5150072, “Discovery and Crystallographic Studies of Nonpeptidic Piperazine Derivatives as Covalent SARS-CoV-2 Main Protease Inhibitors” (J Med Chem, 2022)
Activity calls are given as the source filed them. No cut-off for these calls is given here.

Columns and labels:
[1] = Cytotoxicity against african green monkey Vero E6 cells; type: toxicity, cell-based, Vero C1008; settings: chlorocebus sabaeus
SARS-CoV-2 [2] = assay: Antiviral activity against SARS-CoV-2 infected in Vero E6 cells; type: functional, organism-based; settings: Severe acute respiratory syndrome coronavirus 2, Vero C1008
[3] = biological target: T1, Replicase polyprotein 1ab (Severe acute respiratory syndrome coronavirus 2, UniProt P0DTD1); assay: Inhibition of SARS-CoV-2 main protease incubated for 30 mins by FRET based assay
[4] = biological target: T1, Replicase polyprotein 1ab; assay: Inhibition of SARS-CoV-2 main protease using MCA-AVLQSGFR-Lys(Dnp)-Lys-NH2 as substrate preincubated for 30 mins followed by substrate addition and measured every 10 sec for 10 mins by FRET assay
SARS-CoV-2 [5] = assay: Antiviral activity against SARS-CoV-2 infected in Vero E6 cells preincubated for 1 hr followed by methylcellulose addition and measured after 25 to 26 hrs by EliSpot reader based analysis; type: functional, organism-based; settings: Severe acute respiratory syndrome coronavirus 2, Vero C1008
[6] = Cytotoxicity against african green monkey Vero E6 cells assessed as reduction in cell viability after 26 hrs by MTS assay; type: toxicity, cell-based, Vero C1008; settings: chlorocebus sabaeus
Cathepsin F = biological target: T2, Cathepsin F (Homo sapiens, UniProt Q9UBX1); assay: Inhibition of human cathepsin F using Z-Phe-Arg-AMC as substrate by […] assay; type: toxicity
T2 sequence (Q9UBX1 whole entry): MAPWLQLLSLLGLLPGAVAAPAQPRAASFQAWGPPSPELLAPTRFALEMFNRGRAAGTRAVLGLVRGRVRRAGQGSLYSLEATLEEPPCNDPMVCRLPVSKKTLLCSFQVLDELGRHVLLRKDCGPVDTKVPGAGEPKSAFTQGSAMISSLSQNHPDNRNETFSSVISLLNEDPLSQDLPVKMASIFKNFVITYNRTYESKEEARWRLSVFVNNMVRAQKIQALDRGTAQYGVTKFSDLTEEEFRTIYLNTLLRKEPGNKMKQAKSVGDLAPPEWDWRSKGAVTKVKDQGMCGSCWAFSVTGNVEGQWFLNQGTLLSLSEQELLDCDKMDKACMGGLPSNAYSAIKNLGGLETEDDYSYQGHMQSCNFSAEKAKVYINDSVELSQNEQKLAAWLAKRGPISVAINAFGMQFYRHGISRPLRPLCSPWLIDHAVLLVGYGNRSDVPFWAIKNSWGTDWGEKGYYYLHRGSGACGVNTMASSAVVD

[7] = biological target: Replicase polyprotein 1ab (Severe acute respiratory syndrome coronavirus 2) (UniProt P0DTD1); assay: Covalent inhibition of SARS-CoV-2 main protease assessed as protein-compound adduct formation incubated for 30 mins by MALDI-TOF analysis
Cathepsin B = Cathepsin B (Homo sapiens, UniProt P07858); assay: Inhibition of human cathepsin B using Z-Leu-Arg-AMC as substrate by […] assay; type: toxicity
Cathepsin K = biological target: T3, Cathepsin K (Homo sapiens, UniProt P43235); assay: Inhibition of human cathepsin K using Ac-LR-AFC as substrate by […] assay; type: toxicity
T3 sequence (P43235 whole entry): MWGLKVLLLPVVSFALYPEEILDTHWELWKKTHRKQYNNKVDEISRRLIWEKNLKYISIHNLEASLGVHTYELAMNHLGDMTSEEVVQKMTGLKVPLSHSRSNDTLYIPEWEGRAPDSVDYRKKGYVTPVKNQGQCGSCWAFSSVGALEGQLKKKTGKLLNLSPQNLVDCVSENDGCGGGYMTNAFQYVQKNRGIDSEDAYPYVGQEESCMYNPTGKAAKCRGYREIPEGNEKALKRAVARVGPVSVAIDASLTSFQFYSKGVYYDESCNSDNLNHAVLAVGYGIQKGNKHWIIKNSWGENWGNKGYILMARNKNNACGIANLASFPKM

[8] = biological target: Replicase polyprotein 1ab (Severe acute respiratory syndrome coronavirus 2) (UniProt P0DTD1); assay: Potency index, ratio of IC50 for MCULE-5948770040 to IC50 for test compound for inhibition of SARS-COV-2 main protease
[9] = biological target: Replicase polyprotein 1ab (Severe acute respiratory syndrome coronavirus 2) (UniProt P0DTD1); assay: Irreversible inhibition of SARS-CoV-2 main protease assessed as ratio of Kinact/Ki incubated for 60 mins by MS analysis
Procathepsin L = Procathepsin L (Homo sapiens, UniProt P07711); assay: Inhibition of human cathepsin L using Z-Leu-Arg-AMC as substrate by […] assay; type: toxicity
Sequence of Procathepsin L (P07711 whole entry): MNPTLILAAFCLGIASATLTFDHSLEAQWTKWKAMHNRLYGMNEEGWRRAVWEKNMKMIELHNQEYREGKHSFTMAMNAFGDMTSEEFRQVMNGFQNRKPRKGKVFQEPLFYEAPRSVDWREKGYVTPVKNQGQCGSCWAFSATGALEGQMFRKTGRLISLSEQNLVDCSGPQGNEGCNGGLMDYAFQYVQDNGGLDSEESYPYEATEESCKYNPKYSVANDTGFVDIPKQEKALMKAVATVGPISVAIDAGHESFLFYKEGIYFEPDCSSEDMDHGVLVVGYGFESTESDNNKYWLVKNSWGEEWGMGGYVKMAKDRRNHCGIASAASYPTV

Caspase-3 = biological target: T4, Caspase-3 (Homo sapiens, UniProt P42574); assay: Inhibition of human caspase 3 using Ac-Asp-Glu-Val-Asp-pNA as substrate by […] assay; type: toxicity
T4 sequence (P42574 whole entry): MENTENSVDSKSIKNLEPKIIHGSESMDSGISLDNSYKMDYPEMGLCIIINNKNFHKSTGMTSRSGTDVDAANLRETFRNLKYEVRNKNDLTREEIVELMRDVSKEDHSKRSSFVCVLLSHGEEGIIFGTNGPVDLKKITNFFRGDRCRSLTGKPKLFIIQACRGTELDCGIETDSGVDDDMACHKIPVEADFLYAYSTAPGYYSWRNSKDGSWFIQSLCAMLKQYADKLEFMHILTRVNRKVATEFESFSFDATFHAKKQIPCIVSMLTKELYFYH

SARS-CoV-2 [10] = assay: Antiviral activity against SARS-CoV-2 infected in Vero E6 cells assessed as reduction in virus induced cytopathic effect incubated for 3 days; type: functional, organism-based; settings: Severe acute respiratory syndrome coronavirus 2, Vero C1008, 72 h
SARS-CoV-2 [11] = assay: Antiviral activity against SARS-CoV-2 infected in VeroE6 cells measured after 24 hrs post infection by plaque assay; type: functional, organism-based; settings: Severe acute respiratory syndrome coronavirus 2, Vero C1008, 24 h
[12] = biological target: T1, Replicase polyprotein 1ab; assay: Inhibition of SARS-CoV-2 main protease

C[C@H](NC(=O)[C@@H](c1cccnc1)N(C(=O)C(Cl)Cl)c1ccc(-c2ccccc2)cc1)c1ccccc1
CC50 [1]: 33100 nM | EC50 (SARS-CoV-2 [2]): 670 nM | IC50 [3]: 670 nM

O=C(NCc1cccs1)[C@@H]1CN(C(=O)C(F)(F)S(=O)(=O)F)CCN1c1ccc(Cl)c(Cl)c1
IC50 [4]: 1600 nM | EC50 (SARS-CoV-2 [5]): 183000 nM | CC50 at 26 h [6]: > 100000 nM

O=C(NCc1cccs1)[C@@H]1CN(C(=O)CCl)CCN1c1ccc(Cl)c(Cl)c1
IC50 [4]: 180 nM | EC50 (SARS-CoV-2 [5]): 2640 nM | IC50 (Cathepsin F): > 30000 nM | inhibition [7]: Active | IC50 (Cathepsin B): > 30000 nM | IC50 (Cathepsin K): > 30000 nM | Ratio IC50 [8]: 28 | Ratio [9]: 21500 M⁻¹ s⁻¹ | IC50 (Procathepsin L): > 30000 nM | CC50 at 26 h [6]: 12500 nM | IC50 (Caspase-3): > 30000 nM

O=C(NCc1cccs1)[C@@H]1CN(C(=O)c2cccnc2)CCN1c1ccc(Cl)c(Cl)c1
IC50 [4]: 400 nM | EC50 (SARS-CoV-2 [5]): 400 nM | CC50 at 26 h [6]: > 100000 nM

C#CC(=O)N1CCN(c2ccc(Cl)c(Cl)c2)[C@H](C(=O)NCc2cccs2)C1
IC50 [4]: 2800 nM | EC50 (SARS-CoV-2 [5]): 1370 nM | CC50 at 26 h [6]: 11900 nM

COc1cccc2[nH]c(C(=O)N[C@@H](CC(C)C)C(=O)N[C@@H](C[C@@H]3CCNC3=O)C(=O)CO)cc12 [PF-00835231]
EC50 (SARS-CoV-2 [10]): 230 nM

CC(C)(C)[C@H](NC(=O)C(F)(F)F)C(=O)N1C[C@H]2[C@@H]([C@H]1C(=O)N[C@H](C#N)C[C@@H]1CCNC1=O)C2(C)C
CC50 at 26 h [6]: > 100000 nM

CC(C)(C)NC(=O)C(c1cccnc1)N(C(=O)c1ccco1)c1ccc(C(C)(C)C)cc1 (stereo unspecified)
EC50 (SARS-CoV-2 [2]): > 20000 nM

O=c1c2ccccc2[se]n1-c1ccccc1 [EBSELEN]
CC50 [1]: > 20000 nM

O=C[C@H](C[C@@H]1CCNC1=O)NC(=O)[C@H](CC1CCCCC1)NC(=O)c1cc2ccccc2[nH]1
EC50 (SARS-CoV-2 [11]): 420 nM

[2H][C@](C(=O)N[C@@H](C)c1ccc(F)cc1)(c1cccnc1)N(C(=O)C(C)=O)c1ccc2c(c1)oc1ccccc12
IC50 [12]: 8 nM | EC50 (SARS-CoV-2 [2]): 900 nM

O=C(NCc1cccs1)[C@@H]1CN(C(=O)CBr)CCN1c1ccc(Cl)c(Cl)c1
IC50 [4]: 310 nM | EC50 (SARS-CoV-2 [5]): 4240 nM | Ratio IC50 [8]: 16 | CC50 at 26 h [6]: 6500 nM

CCC(CC)COC(=O)[C@H](C)N[P@](=O)(OC[C@H]1O[C@@](C#N)(c2ccc3c(N)ncnn23)[C@H](O)[C@@H]1O)Oc1ccccc1
EC50 (SARS-CoV-2 [5]): 2270 nM | CC50 at 26 h [6]: > 100000 nM
